In US20070219117A1, “BIDENTATE MOTIF AND METHODS OF USE” (MEDVET SCIENCE PTY LTD, priority 2003, published 2007):
Entries after “also recorded” stand apart in the source; their conditions may differ.

Legend:
Assay type in all cases: cell-based
[1] = system: primary human neutrophils; assay: Survival of primary human neutrophils, annexin V-FITC; conditions: for effect on neutrophil survival in response to low concentrations of GM-CSF: 15 μM inhibitor; for cell survival: neutrophils
Procedure: Survival was determined by annexin V-FITC (Roche) staining essentially as previously described (Guthridge et al., 2000). […] After 48 hours, cells were stained with the 4H1 anti-GMRα mAb and annexin V-FITC. The proportion of GMRα-positive cells remaining viable (annexin V-FITC-negative) after culture was analysed by flow cytometry. […] In some experiments forskolin ICN Biochemicals), H89 (Seikaguku Corporation), LY294002 (Cayman Chemical Company), genestein (Sigma) or AG490 (Biomol) were used.

TF-1 cells = assay: TF-1 cell survival, annexin V-FITC flow cytometry; conditions: data not shown
Procedure: Survival was determined by annexin V-FITC (Roche) staining essentially as previously described (Guthridge et al., 2000). Briefly, transduced fetal liver cells were plated in IMDM and either 0.1% or 10% FCS containing either no GM-CSF, […] hGM-CSF or a positive control cytokine cocktail containing 50 ng/ml IL-6 (Peprotech), 100 ng/ml mouse SCF and 10 ng/ml G-CSF (Amgen). After 48 hours, cells were stained with the 4H1 anti-GMRα mAb and annexin V-FITC. The proportion of GMRα-positive cells remaining viable (annexin V-FITC-negative) after culture was analysed by flow cytometry. The regulation of TF-1 cell survival by GM-CSF was determined as previously described (Guthridge et al., 2000; Guthridge et al., 2004). To examine the survival of primary human neutrophils in response to GM-CSF, we modified our previously described assay (Begley et al., 1986). Neutrophils purified by centrifugation through Lymphoprep (Axis-Shield) were plated at 1.5×10^5 cells/ml in IMDM/0.5% FCS containing different concentrations of GM-CSF and cell survival was examined as previously described (Guthridge et al., 2000). In some experiments forskolin ICN Biochemicals), H89 (Seikaguku Corporation), LY294002 (Cayman Chemical Company), genestein (Sigma) or AG490 (Biomol) were used.

Akt = Akt Ser473 phosphorylation immunoblot in CTL-EN cells expressing the wt GM-CSF receptor; conditions: 1 pM GM-CSF, compared with 1000 pM GM-CSF
Procedure: (§1) Cells were factor-deprived in RPMI containing 0.1% FCS for 24 h and then stimulated for 10 min with different GM-CSF concentrations before lysis as previously described (Guthridge et al., 2000). Human mononuclear cells from normal donors and from leukemic patients were separated from peripheral blood by centrifugation over ficoll. The βc subunit was immunoprecipitated using a mixture of 1C1 and 8E4 anti-βc mAb (1C1/8E4)(1 μg each/immunoprecipitation) and immunoprecipitates subjected to SDS-PAGE and immunoblot analysis. Affinity purified anti-14-3-3 pAb (EB1) were used at a dilution of 1:5000 (Guthridge et al., 2000). Anti-MAP2 mAb (MK12)(Pharmingen) was used at a dilution of 1:5000. Anti-p85 pAb antibodies (UBI) were used at a dilution of 1:1000. The 4G10 anti-phosphotyrosine mAb (UBI) was used at 1 pg/ml. The anti-active-ERK pAb (Promega) was used at 50 ng/ml, the anti-phosphorylated STAT5 mAb (Zymed) was used at 2 μg/ml, the anti-phospho-JAK2 pAb (Affinity Bioreagents) was used at 0.5 μg/ml. Affinity purified anti-βc phospho-577 pAb (Guthridge et al., 2004) were used at a dilution of 1:1000. Antibodies to phospho-Ser585 of βc (Guthridge et al., 2000) were used at a dilution of 1:5000. The phosphorylation of Akt in response to GM-CSF was examined in CTL-EN cells electroporated with the pCMV-AKT-HA plasmid (30 μg DNA/1×10^7 cells)(kindly provided by P. N. Tsichlis). […]

[2] = system: βc subunit of the GM-CSF receptor (Ser585, Tyr577); assay: βc immunoprecipitation and phospho-specific immunoblot in TF-1 cells after GM-CSF titration
Procedure: Cells were factor-deprived in RPMI containing 0.1% FCS for 24 h and then stimulated for 10 min with different GM-CSF concentrations before lysis as previously described (Guthridge et al., 2000). Human mononuclear cells from normal donors and from leukemic patients were separated from peripheral blood by centrifugation over ficoll. The βc subunit was immunoprecipitated using a mixture of 1C1 and 8E4 anti-βc mAb (1C1/8E4)(1 μg each/immunoprecipitation) and immunoprecipitates subjected to SDS-PAGE and immunoblot analysis. Affinity purified anti-14-3-3 pAb (EB1) were used at a dilution of 1:5000 (Guthridge et al., 2000). Anti-MAP2 mAb (MK12)(Pharmingen) was used at a dilution of 1:5000. Anti-p85 pAb antibodies (UBI) were used at a dilution of 1:1000. The 4G10 anti-phosphotyrosine mAb (UBI) was used at 1 pg/ml. The anti-active-ERK pAb (Promega) was used at 50 ng/ml, the anti-phosphorylated STAT5 mAb (Zymed) was used at 2 μg/ml, the anti-phospho-JAK2 pAb (Affinity Bioreagents) was used at 0.5 μg/ml. Affinity purified anti-βc phospho-577 pAb (Guthridge et al., 2004) were used at a dilution of 1:1000. Antibodies to phospho-Ser585 of βc (Guthridge et al., 2000) were used at a dilution of 1:5000. The phosphorylation of Akt in response to GM-CSF was examined in CTL-EN cells electroporated with the pCMV-AKT-HA plasmid (30 μg DNA/1×10^7 cells)(kindly provided by P. N. Tsichlis). 24 h after electroporation the cells were factor-deprived overnight in DMEM/0.5% FCS. Cells were then stimulated (10^7 cells/time point) with either 1 pM or 1000 pM GM-CSF and lysed in RIPA buffer (150 mM NaCl, 1.0% NP40, 0.5% Deoxycholate, 0.1% SDS, 50 mM Tris pH8.0) and subjected to SDS-PAGE and immunoblot analysis with the anti-phospho-Akt Ser473 pAb (1:1000)(Cell Signalling Technologies).

JAK2, STAT5 and ERK = assay: Immunoblot of TF-1 lysates for phospho-JAK2, phospho-STAT5 and active ERK; conditions: also βc tyrosine phosphorylation and p85 recruitment
Procedure: as §1

PKA = assay: Protein kinase A (PKA) kinase assay in TF-1 cells; conditions: 1 pM GM-CSF, up to 30 min, compared with 1000 pM
Procedure: TF-1 cells were factor-deprived overnight in DMEM containing 0.5% FCS. Cells (4×10^6) were stimulated with GM-CSF or forskolin before lysis in 1 ml 20 mM Tris HCl pH 7.4, 0.5 mM EDTA, 0.5 mM EGTA, 10 mM 2-mercaptoethanol, 5% Glycerol and 2 mM NaF by 20 strokes of a dounce homogenizer on ice. The lysate was centrifuged at 170 g for 15 min and the supernatant then centrifuged at 100,000 g for 1 h at 4° C. The resulting pellet was resuspended in NP40 lysis buffer with a protease/phosphatase inhibitor cocktail (Guthridge et al., 2000; Guthridge et al., 2004). Lysate (2 μl) was then tested for PKA activity by adding 40 μM kemptide, 0.25 μCi [y-^32P] ATP, 1 μM cold ATP, in a buffer containing 10 mM MgCl2, 10 mM Tris HCl pH7.4, 1 mM β-glycerol phosphate and 1 mM DTT. Reactions (20 μl) were incubated at 30° C. for 30 min and aliquots were examined for 32P-labelled kemptide on p81 phosphocellulose filters (Whatman) and liquid scintillation counting (Guthridge et al., 2000).

## N#C/C(=C/c1ccc(O)c(O)c1)C(=O)NCc1ccccc1 [AG490]
[1]
  effect on neutrophil survival in response to low concentrations of GM-CSF: Neither inhibitor was able to block; also recorded: survival was increased

## O=S(=O)(NCCNC/C=C/c1ccc(Br)cc1)c1cccc2cnccc12 [H89]
[1]; neutrophils stimulated with GM-CSF
  effect on GM-CSF-promoted survival of neutrophils: reduced
TF-1 cells
  effect on ability of GM-CSF to promote survival in TF-1 cells: reduced

## C=C[C@@]1(C)CC(=O)[C@]2(O)[C@@]3(C)[C@@H](O)CCC(C)(C)[C@@H]3[C@H](O)[C@H](OC(C)=O)[C@@]2(C)O1 [forskolin]
[1]; forskolin in the absence of GM-CSF (from 27% without)
  cell survival: 46%

## O=c1c(-c2ccc(O)cc2)coc2cc(O)cc(O)c12 [genestein]
[1]
  effect on neutrophil survival in response to low concentrations of GM-CSF: Neither inhibitor was able to block

## GM-CSF: cytokine; human GM-CSF used to stimulate cells via the GM-CSF receptor
Akt
  phosphorylation of Ser473 of Akt: the magnitude was reduced and the kinetics were delayed
[2]; TF-1 cells, 10 min stimulation
  GM-CSF concentration at which Tyr577 phosphorylation was detectable: greater than 10 pM
  GM-CSF concentration at which phosphorylation of Ser585 decreased: 10 pM
  GM-CSF concentration at which phosphorylation of Ser585 increased: < 3 pM
  GM-CSF concentration at which phosphorylation of Ser585 was virtually absent: over 100 pM
[2]; low concentration signal
  GM-CSF concentration that promotes Ser585 phosphorylation, 14-3-3 binding and p85 recruitment: < 3 pM
JAK2, STAT5 and ERK
  GM-CSF concentration resulting in phosphorylation of JAK2, STAT5 and ERK: > 10 pM
[1]; 0.1 pM GM-CSF
  cell survival: 90%
[1]; 1 pM GM-CSF
  cell survival: 83%
PKA
  PKA activity: higher and more sustained
